Here are results for 18 molecules from ChEMBL document CHEMBL1137131, “Synthesis and cytotoxicity of water soluble quaternary salt derivatives of camptothecin” (Bioorg Med Chem Lett, 2004).

Format in all cases: functional, cell-based
One test has as its system KB. Put plainly: In vitro cytotoxicity against KB cell line (human epidermoid carcinoma of the nasopharynx) using MTT assay. (Tetrazolium dyes change colour on reduction, which living cells bring about.)
A further test concerns Bel-7402. Put plainly: In vitro cytotoxicity against Bel7402 cell line (human liver cancer) using MTT assay.
Another test relates to HCT-8. The experiment in a line: In vitro cytotoxicity against HCT-8 cell line (human colon cancer) using MTT assay.

Converted amounts (≈) assume the structure as drawn. A value given as a limit tells only on which side of the number the result lay.

On to `CC[C@@]1(O)C(=O)OCc2c1cc1n(c2=O)Cc2cc3cc(OCC[n+]4cccc(C(C)=O)c4)ccc3nc2-1`, for which the IC50 with KB came to 3.21 mg/L; in the test with Bel-7402, 5 mg/L; in the test with HCT-8, 3.01 mg/L.
As to `CC[C@@]1(O)C(=O)OCc2c1cc1n(c2=O)Cc2cc3cc(OCC[n+]4cccc(C=O)c4)ccc3nc2-1`, the IC50 came out at 0.34 mg/L in the test on KB, 3.73 mg/L in the test on Bel-7402 and 0.35 mg/L with HCT-8.
On to `CC[C@@]1(O)C(=O)OCc2c1cc1n(c2=O)Cc2cc3cc(OCCC[n+]4cccc(O)c4)ccc3nc2-1`, for which the IC50 with KB turned out to be 0.04 mg/L; in the test with Bel-7402 it was 3.92 mg/L; with HCT-8, 0.03 mg/L.
Turning to `CC[C@@]1(O)C(=O)OCc2c1cc1n(c2=O)Cc2cc3cc(OCCC[n+]4cccc(CO)c4)ccc3nc2-1`, the IC50 is 0.31 mg/L with KB, 2.87 mg/L in the test with Bel-7402 and 0.34 mg/L in the test with HCT-8.
Taken in the same sequence, the figures for `CC[C@@]1(O)C(=O)OCc2c1cc1n(c2=O)Cc2cc3cc(OCCC[n+]4cccc(C(C)=O)c4)ccc3nc2-1` were 3.13 mg/L, 5 mg/L and 3.15 mg/L.
For the molecule `CC[C@@]1(O)C(=O)OCc2c1cc1n(c2=O)Cc2cc3cc(OCCC[n+]4ccccc4)ccc3nc2-1`, the IC50 with KB turned out to be 0.03 mg/L; in the test with Bel-7402, 0.44 mg/L; in the test with HCT-8 it was 0.03 mg/L.
As for `CC[C@@]1(O)C(=O)OCc2c1cc1n(c2=O)Cc2cc3cc(OCC[n+]4cccc(C(=O)O)c4)ccc3nc2-1`, the IC50 with KB is 0.31 mg/L; in the test with Bel-7402, 5 mg/L; in the test on HCT-8 it was 0.27 mg/L.
Taken in the same sequence, the figures for `CC[C@@]1(O)C(=O)OCc2c1cc1n(c2=O)Cc2cc3cc(OCC[n+]4cccc(C)c4)ccc3nc2-1` were 0.63 mg/L, 0.47 mg/L and 1.42 mg/L.
As for `CC[C@@]1(O)C(=O)OCc2c1cc1n(c2=O)Cc2cc3cc(OCCC[n+]4cccc(C)c4)ccc3nc2-1`, the figures for the IC50 in the test on KB, in the test with Bel-7402 and with HCT-8 were less than 0.005 mg/L, 0.04 mg/L and less than 0.005 mg/L, respectively.
Regarding `CC[C@@]1(O)C(=O)OCc2c1cc1n(c2=O)Cc2cc3cc(OCC[n+]4cccc(O)c4)ccc3nc2-1`, the IC50 in the test on KB worked out at 0.32 mg/L; with Bel-7402, 0.47 mg/L; with HCT-8, 0.42 mg/L.
Turning to `CC[C@@]1(O)C(=O)OCc2c1cc1n(c2=O)Cc2cc3cc(OCCC[n+]4cccc(C=O)c4)ccc3nc2-1`, the IC50 in the test on KB is 0.27 mg/L; with Bel-7402, 0.46 mg/L; in the test with HCT-8, 0.17 mg/L.
As for `CC[C@@]1(O)C(=O)OCc2c1cc1n(c2=O)Cc2cc3cc(OCC[n+]4ccccc4)ccc3nc2-1`, the IC50 amounted to 0.33 mg/L with KB, 3.53 mg/L in the test on Bel-7402 and 0.45 mg/L with HCT-8.
Taken in the same sequence, the figures for `CC[C@@]1(O)C(=O)OCc2c1cc1n(c2=O)Cc2cc3cc(OCC[n+]4cccc(CO)c4)ccc3nc2-1` were 3.28 mg/L, 5 mg/L and 3.73 mg/L.
On to `CC[C@@]1(O)C(=O)OCc2c1cc1n(c2=O)Cc2cc3cc(OCCC[n+]4cccc(F)c4)ccc3nc2-1`, for which the IC50 in the test on KB worked out at 3.4 mg/L; in the test on Bel-7402, 5 mg/L; in the test with HCT-8 it was 2.02 mg/L.
Turning to `CC[C@@]1(O)C(=O)OCc2c1cc1n(c2=O)Cc2cc3cc(OCC[n+]4cccc(F)c4)ccc3nc2-1`, the values for the IC50 in the test with KB, in the test on Bel-7402 and in the test on HCT-8 were 0.33 mg/L, 5 mg/L and 0.38 mg/L, respectively.
Taken in the same sequence, the figures for `CC[C@@]1(O)C(=O)OCc2c1cc1n(c2=O)Cc2cc3cc(OCCC[n+]4cccc(C(=O)O)c4)ccc3nc2-1` were 0.32 mg/L, 0.44 mg/L and 0.33 mg/L.
Regarding `CC[C@@]1(O)C(=O)OCc2c1cc1n(c2=O)Cc2cc3ccccc3nc2-1` [CAMPTOTHECIN], the IC50 was less than 0.005 mg/L in the test with KB, 2.72 mg/L (≈ 7.81 µM) with Bel-7402 and less than 0.005 mg/L in the test on HCT-8.
As to `CC[C@@]1(O)C(=O)OCc2c1cc1n(c2=O)Cc2cc3c(CN(C)C)c(O)ccc3nc2-1.Cl` [TOPOTECAN HYDROCHLORIDE], the 50% inhibitory concentration (IC50) is 0.02 mg/L with KB, 0.4 mg/L with Bel-7402 and 0.03 mg/L with HCT-8.

Usually IC50 stands for the concentration that gives 50% inhibition. A low value points to greater potency in that assay.
